The record followed here is paper PMC8713283 (Journal of Medicinal Chemistry, 2021).

Structures are written as SMILES. Several values for one entry are separate records, joined by “and”; a condition that tells them apart may be missing. Identical values can stand only once.

The nature of series [1]: Log D(dec/w) shake flask partition coefficient. Conditions: 1,9-decadiene/PBS; 1,9-decadiene and PBS pH 7.4 shake flask partition coefficient. Type of series: physicochemical.
The conditions of series [2]: LPEester – LPEamide by amide–ester matched pairs.
For series [3] the following is noted: human.
Series [4] concerns P-gp (human MDR1). As to the kind of experiment: in vitro. Conditions: dog; for Papp A→B at 5 µM / Papp B→A at 5 µM: MDCK-MDR1; for efflux ratio at 5 µM: MDCK-MDR1, Efflux ratio B-A/A-B, MDCK-MDR1, 5 µM, N = 2.
The nature of series [5]: in vitro. To be noted: PAMPA. On the technique in general: PAMPA measures passive passage across an artificial lipid membrane.
For series [6], the target named is T1, VHL + Brd2BD2 (Homo sapiens, UniProt P25440+P40337).
T1 construct: Brd2-BD2 (344–455); His6 (N, cleaved yes); made in house; host or cells: E. coli
The series is described as follows: FP competition, ternary binding to VHL with Brd2BD2. To be noted: for ΔpKd: Log10(α) = pKd ternary - pKd binary.

The target in series [7] is T2, VHL + Brd3BD2 (Homo sapiens, UniProt P40337+Q15059).
T2 construct: Brd3-BD2 (306–416); His6 (N, cleaved yes); made in house; host or cells: E. coli
As to the kind of experiment: FP competition, ternary binding to VHL with Brd3BD2. Conditions: for ΔpKd: Log10(α) = pKd ternary - pKd binary; for Cooperativity α: α = Kd binary/Kd ternary.

Series [8] addresses T3, VHL + Brd4BD2 (Homo sapiens, UniProt O60885+P40337).
T3 construct: Brd4-BD2 (333–460); His6 (N, cleaved yes); made in house; host or cells: E. coli
It counts as binding. To be noted: for ΔpKd: Log10(α) = pKd ternary - pKd binary.

Series [9] concerns the target VHL + Brd3BD1 (Homo sapiens, UniProt P40337+Q15059). Conditions: for ΔpKd: Log10(α) = pKd ternary - pKd binary; for Cooperativity α: α = Kd binary/Kd ternary.
The target in series [10] is VHL + Brd4BD1 (Homo sapiens, UniProt O60885+P40337). To be noted: for ΔpKd: Log10(α) = pKd ternary - pKd binary; for Cooperativity α: α = Kd binary/Kd ternary.
Series [11] has as its target T4, VHL + Brd2BD1 (Homo sapiens, UniProt P25440+P40337).
T4 construct: His6 (N, cleaved yes); made in house; host or cells: E. coli
The series is described as follows: FP competition, ternary binding to VHL with Brd2BD1.

The target in series [12] is T5, Brd4 (Homo sapiens, UniProt O60885).
T5 construct: endogenous in cells; host or cells: HEK293
The series is described as follows: Western blot degradation of Brd4 in HEK293 cells. Conditions: HEK293, 4 h, 10 μM, N = 1. Type of series: cell-based.

For series [13], the target named is T6, Brd2 (Homo sapiens, UniProt P25440).
T6 construct: endogenous in cells; host or cells: HEK293
The series is described as follows: Western blot degradation of Brd2 in HEK293 cells. Type of series: cell-based. (Immunoblotting shows a protein as a band on a membrane.)

By Papp A→B is commonly meant how fast a substance crosses the layer from the apical side. Read a low Papp A→B as slow passage. In general, Papp B→A refers to the apparent permeability from the basolateral to the apical side of a cell layer. The term efflux ratio denotes the permeability from basolateral to apical divided by that in the opposite direction, in the common usage. The Papp is a coefficient for how fast a substance crosses the barrier. A higher Papp goes with ready permeation. The term DC50 denotes the concentration giving 50% degradation.

As to `COCC(=O)OCCCCCC(=O)N[C@H](C(=O)N1C[C@H](O)C[C@H]1C(=O)NCc1ccc(-c2scnc2C)cc1)C(C)(C)C` [Compound 8, 6-(((S)-1-((2S,4R)-4-Hydroxy-2-((4-(4-methylthiazol-5-yl)benzyl)carbamoyl)pyrrolidin-1-yl)-3,3-dimethyl-1-oxobutan-2-yl)amino)-6-oxohexyl 2-methoxyacetate], the logD hydrocarbon water in series [1] was -1.7. The compound also registered a ΔLPE in series [2] of -0.2. The Plasma stability in series [3] worked out at 1 ± 0.4%. In [4], the Papp A→B at 5 µM is 0.4 ×10⁻⁶ cm/s, the basolateral-to-apical permeability (Papp B→A) at 5 µM is 11 ×10⁻⁶ cm/s and the efflux ratio at 5 µM worked out at 26.
Consider `CCCC(=O)OCCCCCC(=O)N[C@H](C(=O)N1C[C@H](O)C[C@H]1C(=O)NCc1ccc(-c2scnc2C)cc1)C(C)(C)C` [Compound 9, 6-(((S)-1-((2S,4R)-4-Hydroxy-2-((4-(4-methylthiazol-5-yl)benzyl)carbamoyl)pyrrolidin-1-yl)-3,3-dimethyl-1-oxobutan-2-yl)amino)-6-oxohexyl Butyrate], for which the logD hydrocarbon water in series [1] is -0.5. The compound further had a ΔLPE in series [2] of 1.1. In [3], this compound gave a Plasma stability of 13 ± 1%. For the same compound, the Papp in [5] was found to be 6.5 ×10⁻⁶ cm/s. Also, in [4], the apparent permeability from apical to basolateral (Papp A→B) at 5 µM was 0.9 ×10⁻⁶ cm/s, the Papp B→A at 5 µM was 47 ×10⁻⁶ cm/s and the efflux ratio at 5 µM came out at 55.
Turning to `Cc1ncsc1-c1ccc(CNC(=O)[C@@H]2C[C@@H](O)CN2C(=O)[C@@H](NC(=O)CCCCCOC(=O)C2CCCCC2)C(C)(C)C)cc1` [Compound 11, 6-(((S)-1-((2S,4R)-4-Hydroxy-2-((4-(4-methylthiazol-5-yl)benzyl)carbamoyl)pyrrolidin-1-yl)-3,3-dimethyl-1-oxobutan-2-yl)amino)-6-oxohexyl cyclohexanecarboxylate], the logD hydrocarbon water in series [1] worked out at 1.1. In series [2], this compound gave a ΔLPE of 1.8. In series [3], this compound returned a Plasma stability of 14 ± 1%. Moreover, in series [4], the apparent permeability from apical to basolateral (Papp A→B) at 5 µM was determined as 0.3 ×10⁻⁶ cm/s, the Papp B→A at 5 µM stood at 35.6 ×10⁻⁶ cm/s and the efflux ratio at 5 µM worked out at 142.
On to `Cc1ncsc1-c1ccc(CNC(=O)[C@@H]2C[C@@H](O)CN2C(=O)[C@@H](NC(=O)CCCCCOC(=O)CC23CC4CC(CC(C4)C2)C3)C(C)(C)C)cc1` [Compound 12, 6-(((S)-1-((2S,4R)-4-Hydroxy-2-((4-(4-methylthiazol-5-yl)benzyl)carbamoyl)pyrrolidin-1-yl)-3,3-dimethyl-1-oxobutan-2-yl)amino)-6-oxohexyl 2-(adamantan-1-yl)acetate], for which, in series [1], the logD hydrocarbon water was 2.4. In addition, in [2], the ΔLPE was found to be 1.8. The compound also came in with a Plasma stability in series [3] of 80 ± 11%. For the same compound, in [4], the Papp B→A at 5 µM was 4.5 ×10⁻⁶ cm/s.
With `Cc1ncsc1-c1ccc(CNC(=O)[C@@H]2C[C@@H](O)CN2C(=O)[C@@H](NC(=O)CCCCCOC(=O)CC(c2ccccc2)c2ccccc2)C(C)(C)C)cc1` [Compound 13, 6-(((S)-1-((2S,4R)-4-Hydroxy-2-((4-(4-methylthiazol-5-yl)benzyl)carbamoyl)pyrrolidin-1-yl)-3,3-dimethyl-1-oxobutan-2-yl)amino)-6-oxohexyl 3,3-diphenylpropanoate], the logD hydrocarbon water in series [1] turned out to be 1.9. In series [2], this compound displayed a ΔLPE of 1.6. Further, the Plasma stability in series [3] came to 58 ± 6%. Besides, in series [4], the Papp A→B at 5 µM was found to be 0.2 ×10⁻⁶ cm/s, the Papp B→A at 5 µM was 13.9 ×10⁻⁶ cm/s and the efflux ratio at 5 µM turned out to be 84.
In the case of `Cc1ncsc1-c1ccc(CNC(=O)[C@@H]2C[C@@H](O)CN2C(=O)[C@@H](NC(=O)COCCOCCOCCNC(=O)C[C@@H]2N=C(c3ccc(Cl)cc3)c3c(sc(C)c3C)-n3c(C)nnc32)C(C)(C)C)cc1` [Compound 21, MZ1], the “PAMPA Pe” value is 0.01 ×10^–6 cm/s. Further, the ΔpKd in series [6] is listed as 1.46. For the same compound, in series [7], the ΔpKd was 0.73 and the “Cooperativity α” value worked out at 5.3. For the same compound, the ΔpKd in series [8] was found to be 1.73. In series [9], the ΔpKd worked out at 0.45 and the “Cooperativity α” value is listed as 2.8. In series [10], the ΔpKd worked out at 0.62 and the “Cooperativity α” value came to 4.2. Also, the Papp B→A at 5 µM in [4] was 1.5 ×10⁻⁶ cm/s.
For `Cc1ncsc1-c1ccc([C@H](C)NC(=O)[C@@H]2C[C@@H](O)CN2C(=O)[C@@H](NC(=O)COCCCOCCNC(=O)C[C@@H]2N=C(c3ccc(Cl)cc3)c3c(sc(C)c3C)-n3c(C)nnc32)C(C)(C)C)cc1` [Compound 22, ARV-771], the ΔpKd in series [11] (Log10(α) = pKd ternary - pKd binary) amounted to 0.38; in series [6], 0.66; in [7], 0.64; in [8], 1.12; in series [9], 0.30; in series [10], 0.42. The “Cooperativity α” value in [11] (α = Kd binary/Kd ternary) is recorded as 2.4; in [6] (α = Kd binary/Kd ternary) it was 4.6; in series [7], 4.3; in [8] (α = Kd binary/Kd ternary), 13; in [9] it was 2.0; in series [10] it was 2.6. The Kd in [6] (read-out: pKd ternary (converted)) was 7.41 nM. In addition, in series [12], the “Hook effect, Brd4 protein levels” value is “exhibited a hook effect”. The “pDC50 Brd2” value in [13] (HEK293, 4 h, 1 μM to 100 pM, mean ± S.E., three experiments) is 6.9 ± 0.2 and 7.4 ± 0.1. For the same compound, in series [13] (read-out: DC50 Brd2, HEK293 cells), the 50% degradation concentration (DC50) came out at 42 nM.
